Like-named read-outs stand apart in the source and are kept apart here.
Experiments:
[1] = system: non-small cell carcinoma (NSCLC) xenografts; details: for antitumor activity of the alone drug: no PDT
Protocol: 3) Tumor transplantation: the xenografts used for antitumor activity were transplanted subcutaneously. The treatment was initiated 7-10 days post transplantation. 4) Tumor measurement: two axes (mm) of tumor (L, longest axis; W, shortest axis) were measured with the aid of a Vernier caliper. Tumor weight (mg) was estimated as a formula tumor weight ½ (L×W2). Tumor measurements were taken after the scabbing healed post PDT and at least three times a week for post therapy and twice a week therefore. 5) Tumor regression: complete tumor regression (CR) was defined as the inability to detect tumor by palpation at the initial site of tumor appearance for more than two months post therapy. […] Partial tumor regression (PR) was defined as ≥50% reduction in initial tumor size. Normally, 5 mice per treatment group were included in these experiment groups and repeated at least twice.
PDT of Subcutaneous Tumors—Tumor bearing mice are injected via the tail vein with HPPH or derivatives at doses that are non-toxic unless exposed to light. For tail vein injections, mice were gently restrained in approved holders and their tails were briefly (less than 1 minute) dipped in warm sterile water (˜40° C.). Photosensitizers are injected in a volume of less than 0.2 mL into the tail vein using a 27-gauge needle.
The photosensitizers, at 24 hours (or the optimal time determined by optical imaging) after administration of HPPH or derivatives, the animals were partially restrained allowing leg movement, in specially designed holders without anesthesia.
Tumors are exposed to visible light (1 cm diameter) at power densities of less than 100 mW/cm^2. The light sources are either a dye laser (with a tunable range of 600 to 800 nm), at the optimal excitation wavelength for the individual photosensitizer; or a pulsed laser with a range of 460 to 800 nm. The treatment will vary, depending on the light dose (J/cm^2) and fluence rate (mW/cm^2) required, but usually is for approximately 30 minutes.
After light exposure, the mice are monitored closely for at least 1 hour and then daily until the re-growing tumors reach no more than 2 cm in the greatest dimension or for a maximum of 60 days (post treatment) at which time they are euthanized. All animals will be euthanized within 90 days of tumor implantation.

[2] = system: skin cancer (basal cell carcinoma) early lung cancer and esophageal cancers; experiment: Phase I human clinical trials of HPPH; assay type: in vivo
[3] = Skin phototoxicity of the photosensitizers; assay type: in vivo; details: in contrast to most of the clinically approved PS
[4] = system: FaDu head and neck cancer xenografts; experiment: PDT response and antitumor activity in SCID mice bearing FaDu head and neck cancer xenografts; assay type: in vivo
Protocol: First dose of irinotecan: 1 h post-PDT treatment.
Human head and neck cancer xenografts (FaDu and H&N 85-1)
The treatment was initiated 7-10 post transplantation.

[5] = patients advised to be away from sunlight at least 6-8 weeks after the light treatment; cited from earlier work
[6] = 5 mg/kg weekly×3 doses, in combination with HPPH or Photobac with PDT, 8/10 mice

N.N.[Cl][Pt][Cl] [Cisplatin, cisplatin]
CR (complete tumor regression) [1, 6]: 80%
antitumor activity of the alone drug ([1]; 5 mg/kg weekly×3 doses): not effective

COc1cccc2c1C(=O)c1c(O)c3c(c(O)c1C2=O)C[C@@](O)(C(=O)CO)C[C@@H]3O[C@H]1C[C@H](N)[C@H](O)[C@H](C)O1 [Doxorubicin, doxorubicin]
CR (complete tumor regression) [1, 6]: 80%
antitumor activity of the alone drug ([1]; 5 mg/kg weekly×3 doses): not effective
toxicity ([1]; mouse, in vivo): no significant effects

CCCCCCOC(C)c1c(C)c2cc3nc(c4c5[nH]c(cc6nc(cc1[nH]2)C(C)=C6CC)c(C)c5C(=O)C4)[C@@H](CCC(=O)O)[C@@H]3C (some centres unmarked) [HPPH, 3-(1′-hexyloxy)ethyl-3-devinylpyropheopphorbide-a]
CR (complete tumor regression) ([1]; PDT with HPPH, without chemotherapy): 20%
effectiveness in treatment of cancer [2]: effective
skin photo toxicity [3]: do not produce any skin photo toxicity

CCc1c2c(nc3ccc(OC(=O)N4CCC(N5CCCCC5)CC4)cc13)-c1cc3c(c(=O)n1C2)COC(=O)[C@]3(O)CC [Irinotecan, irinotecan]
CR (complete tumor regression) ([4]; 100 mg/kg weekly×4 doses, in combination with HPPH and PDT, 11/15 mice): 73%
toxicity ([4]; PDT ± chemotherapy, in the used doses): no significant effects
antitumor activity of the alone drug ([4]; drug alone, 100 mg/kg weekly×4 doses, no PDT): not effective
CR (complete tumor regression) ([4]; in combination with Photobac (PDT), 3/5 mice): 60%

CCCCOC(C)c1c(C)c2cc3nc(c4c5[nH]c(cc6nc(cc1[nH]2)C(C)C6CC)c(C)c5C(=O)N(CCCC)C4=O)C(CCC(=O)OC)C3C (centres unmarked) [Photobac, 3-(1′-butyloxy)ethyl-3-deacetyl-bacteriopurpurin-18-N-butyl-imide methyl ester]
skin photo toxicity [3]: do not produce any skin photo toxicity

Photofrin
skin phototoxicity in patients [5]: severe skin phototoxicity

Reference: patent publication US20200078459A1, “NEAR INFRARED (NIR) PHOTODYNAMIC THERAPY (PDT) IN COMBINATION WITH CHEMOTHERAPY” (Health Research, Inc., priority 2016, published 2020)
